According to US7887850B2, “Method for reducing pathogens in the gastrointestinal tract of poultry and other food animals” (Ecolab Inc., priority 2004, dated 2011):

Tested on: broilers
Method: A total of 320 broilers (35 days of age) were randomly allocated to 64 pens (5 birds/pen). […] All solutions were prepared and replaced twice a day, and all birds were given free access to the solutions. Water intake, feed consumption, weight gain, and mortality was monitored during the seven day experimental period.

O=C(O)CC(O)(CC(=O)O)C(=O)O [citric acid]
levels that did not affect live performance (broilers, drinking water, seven days, percent by weight): up to 0.4%
differences in mortality during the experiment (chicken (broilers), in vivo): No significant (P>0.05) differences
response of daily and 7-day water consumption to graded levels in the water (in vivo): Linear and quadratic responses
